What was measured:
glutathione reductase = details: 72 hours post-injury, compared to all other groups, FIG. 2, p<0.01; cited from earlier work
[1] = molecular target: T1, progesterone receptor (PR) (Homo sapiens, UniProt P06401); details: cited from earlier work
T1 sequence (P06401 1-933): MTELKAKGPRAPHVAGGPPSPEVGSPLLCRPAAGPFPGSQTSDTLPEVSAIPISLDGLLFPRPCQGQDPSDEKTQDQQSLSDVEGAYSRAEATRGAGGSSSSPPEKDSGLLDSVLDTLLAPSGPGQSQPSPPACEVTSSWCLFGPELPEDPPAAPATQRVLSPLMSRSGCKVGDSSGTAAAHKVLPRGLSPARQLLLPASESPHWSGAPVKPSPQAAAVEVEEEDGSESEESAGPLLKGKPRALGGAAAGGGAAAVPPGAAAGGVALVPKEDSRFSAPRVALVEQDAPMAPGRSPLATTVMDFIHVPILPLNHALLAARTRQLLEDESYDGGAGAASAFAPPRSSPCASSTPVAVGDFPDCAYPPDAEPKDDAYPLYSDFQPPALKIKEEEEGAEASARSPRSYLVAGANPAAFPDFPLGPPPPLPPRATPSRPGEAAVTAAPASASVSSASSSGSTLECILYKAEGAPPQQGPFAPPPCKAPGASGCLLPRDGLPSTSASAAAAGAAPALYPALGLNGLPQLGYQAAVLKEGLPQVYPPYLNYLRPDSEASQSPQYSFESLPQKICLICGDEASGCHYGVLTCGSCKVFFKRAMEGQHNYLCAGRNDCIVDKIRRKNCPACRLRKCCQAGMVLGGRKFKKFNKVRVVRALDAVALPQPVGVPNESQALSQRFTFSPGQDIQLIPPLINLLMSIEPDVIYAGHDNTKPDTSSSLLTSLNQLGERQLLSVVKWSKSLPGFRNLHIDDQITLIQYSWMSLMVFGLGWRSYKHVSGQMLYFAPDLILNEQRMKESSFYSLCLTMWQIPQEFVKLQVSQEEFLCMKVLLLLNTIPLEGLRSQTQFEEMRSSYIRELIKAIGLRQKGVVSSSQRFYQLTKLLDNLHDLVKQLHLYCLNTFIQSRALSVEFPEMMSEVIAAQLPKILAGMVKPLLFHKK

traumatic brain injury = details: cited from earlier work; for factors of cell death, brain swelling and inflammation: TBI
rats suffering from TBI = details: 16 mg/kg, 72 hours post-injury, moderate to severe brain injury, FIG. 1, p<0.05; cited from earlier work
P-glycoprotein (PGP) = test: P-glycoprotein protein abundance in penumbral region of injured brain, FIG. 6; type: in vivo, rodents; details: 72 hours post-injury, vs vehicle and sham, p<0.05, FIG. 6
[2] = system: male reproductive function; details: males; cited from earlier work
severe TBI patients = details: six months; cited from earlier work
[3] = system: rats that have suffered a concussion (mTBI); test: Morris Water Maze latency to platform in mTBI (concussion) model, FIG. 8; type: in vivo; details: vs vehicle-injured rats, p<0.05

| SMILES | anti-oxidant activity of glutathione reductase (glutathione reductase) | activation of PR-mediated transcription [1] | factors of cell death, brain swelling and inflammation (traumatic brain injury) | brain water content (measure of edema) (rats suffering from TBI) | protein abundance of P-glycoprotein (PGP) (P-glycoprotein (PGP)) | conversion of testosterone to dihydrotestosterone [2] | size of reproductive organs [2] | spermatogenesis [2] | neurological outcomes long-term (severe TBI patients) | edema (traumatic brain injury; both rodent sexes following injury) | genes promoting the inflammatory cascade: Bcl-2, IL-1β and Cxcl-10 (traumatic brain injury; following TBI, previous study) | factors of cell death (caspase-3) and gliosis (GFAP) (traumatic brain injury; following injury) | inflammatory factors (TNF-α and IL-1β) (traumatic brain injury; following injury) | Neurological Severity Score (motor and cognitive functioning) (traumatic brain injury; rats following injury) | latency to platform, post-acute administration ([3]; 15 minutes post mTBI (1 hour post)) | latency to platform, prophylactic administration ([3]; 15 minutes prior to mTBI (1 hour prior)) |
| --- | --- | --- | --- | --- | --- | --- | --- | --- | --- | --- | --- | --- | --- | --- | --- | --- |
| CC(=O)[C@@H]1CC[C@@H]2[C@H]3CCC4=CC(=O)CC[C@@]4(C)[C@@H]3CC[C@]21C [ent-Prog, ent-progesterone] | significantly increases | does not activate | equivalently reduce | normalizes brain water content | increase | – | – | – | – | – | – | – | – | – | – | – |
| CC(=O)[C@H]1CC[C@H]2[C@@H]3CCC4=CC(=O)CC[C@]4(C)[C@H]3CC[C@]12C [Prog, progesterone] | – | – | equivalently reduce | normalizes brain water content | increase | inhibits | reduces | suppresses | better neurological outcomes | effectively attenuates | down-regulated | decreased | inhibiting | significant improvements | decreases latency to platform | decreases latency to platform |
| CC(=O)[C@H]1CC[C@H]2[C@@H]3CC[C@H]4C[C@H](O)CC[C@]4(C)[C@H]3CC[C@]12C [ALLO, allopregnanolone] | – | – | – | normalizes brain water content | – | – | – | – | – | – | – | decreased | – | – | – | – |

From patent US8492368B2 (priority 2011, dated 2013)
